Here are results for 6 compounds from patent publication US5948785A, “Heterocyclic amide compounds and pharmaceutical use of the same” (The Green Cross Corporation, priority 1995, dated 1999).

For this assay, the target named is T1, human heart chymase (Homo sapiens, UniProt P23946).
T1 sequence (P23946 22-247): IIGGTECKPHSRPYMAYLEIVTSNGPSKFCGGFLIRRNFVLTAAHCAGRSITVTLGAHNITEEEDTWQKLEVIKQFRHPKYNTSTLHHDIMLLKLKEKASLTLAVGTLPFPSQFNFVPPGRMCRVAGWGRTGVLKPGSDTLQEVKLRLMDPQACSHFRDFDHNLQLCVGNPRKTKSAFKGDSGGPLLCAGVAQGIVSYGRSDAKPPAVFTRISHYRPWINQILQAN
Kind of assay: Inhibitory activity on amidase activity of human heart chymase. Format: biochemical. To be noted: 5 nM chymase; succinyl-alanyl-alanyl-prolyl-phenylalanine-p-nitroanilide 2.5 mM; pH 9.0; Easson-Stedman plot; read-out: K^i (human heart chymase inhibitory activity). The method, then: The effectiveness of the inhibitory activity of compound (I) of the present invention was evaluated based on the inhibitory activity on amidase activity of human heart chymase, which was determined as in the following.
The inhibitory activity was quantitatively determined through variation in fractional residual activity of the enzyme caused by the inventive compound in defined serial concentration (<×1, <×10, <×100-fold equivalents) relative to 5 nM chymase in the presence of synthetic substrate, succinyl-alanyl-alanyl-prolyl-phenylalanine-p-nitroanilide (final concentration 2.5 mM). The inhibitory effect was analyzed by least square regression of Easson-Stedman plot (Proc. Roy. Soc. B. 1936, 121, p. 141) utilizing bimolecular equilibrium reaction linearization formula. The inhibitory activity was evaluated by the apparent inhibitory constant (Kiapp) obtained by this analysis and inhibitory constant (Ki) calculated from final substrate concentration in the reaction mixture and Km values separately determined. The quantitative determination of initial rate of the enzyme reaction was spectrophotometrically detected in terms of an increased amount of p-nitroaniline at 405 nm produced by hydrolysis of the substrate. The chymase inhibitory activity of the compound of the present invention was calculated as ratio of residual activity in the presence of inhibitor relative to enzyme activity in the absence of inhibitor, and incorporation of the determination values was completed at a level less than initial rate guarantee absorbance at a concentration of the substrate used for the enzyme, after which analysis was performed.
The reaction mixture consisted of an Na2 B4 O7 (100 mM)-KH2 PO4 (50 mM) buffer (pH 9.0, 120 μl) containing 0.1% Triton-X100, the inventive compound dissolved in 20 μl of 10% dimethyl sulfoxide (DMSO), 10% bovine serum albumin dissolved in 20 μl of the same buffer, substrate dissolved in 20 μl of DMSO, and 20 μl of chymase, thus amounting to 200 μl in total.
Starting with the absorbance immediately after addition of the enzyme, increases in absorbance were recorded as a progressive curve taken precisely at equal time intervals.
From the above data, the difference between absorbances at completion of the reaction and immediately after addition was used to quantitatively determine the residual activity of the sample added with the inhibitor relative to a control wherein the inhibitor was not added. Alternatively, reaction rates of the control and the sample added with the inhibitor were calculated for certain time period (≥20 min) with successive shift (every 10 to 30 minutes) of the period, and the residual activity ratio was quantitatively determined and analyzed from the respective reaction rates averaged through the entire reaction time.
For `Cc1cccc(-c2ncc(NC(=O)OCc3ccccc3)c(=O)n2CC(=O)NC(Cc2ccccc2)C(=O)C(F)(F)F)c1` (stereo not drawn) [Example 7, 2-[5-benzyloxycarbonylamino-6-oxo-2-(m-tolyl)-1,6-dihydro-1-pyrimidyl]-N-(1-benzyl-3,3,3-trifluoro-2-oxopropyl)-acetamide], the Ki amounted to 4.8 µM.

On to `O=C(Cn1c(-c2ccc(F)cc2)ncc(NC(=O)OCc2ccccc2)c1=O)NC(Cc1ccccc1)C(=O)C(F)(F)F` (stereo not drawn) [Example 3, 2-[5-benzyloxycarbonylamino-2-(4-fluorophenyl)-6-oxo-1,6-dihydro-1-pyrimidyl]-N-(1-benzyl-3,3,3-trifluoro-2-oxopropyl)acetamide], for which the Ki is 5.6 µM.

As to `Cc1ccc(-c2ncc(N)c(=O)n2CC(=O)NC(Cc2ccccc2)C(=O)C(F)(F)F)cc1` (stereo not drawn) [Example 6, 2-[5-amino-6-oxo-2-(p-tolyl)-1,6-dihydro-1-pyrimidyl]-N-(1-benzyl-3,3,3-trifluoro-2-oxopropyl)acetamide], the Ki is 7 µM.

Take `Nc1cnc(-c2ccccc2)n(CC(=O)NC(Cc2ccccc2)C(=O)C(F)(F)F)c1=O` (stereo not drawn) [Example 2, 2-(5-amino-6-oxo-2-phenyl-1,6-dihydro-1-pyrimidyl)-N-(1-benzyl-3,3,3-trifluoro-2-oxopropyl)acetamide]: the Ki worked out at 7.2 µM.

Regarding `Nc1cnc(-c2ccc(F)cc2)n(CC(=O)NC(Cc2ccccc2)C(=O)C(F)(F)F)c1=O` (stereo not drawn) [Example 4, 2-[5-amino-2-(4-fluorophenyl)-6-oxo-1,6-dihydro-1-pyrimidyl]-N-(1-benzyl-3,3,3-trifluoro-2-oxopropyl)acetamide], the Ki came out at 4.1 µM.

Turning to `Cc1ccc(-c2ncc(NC(=O)OCc3ccccc3)c(=O)n2CC(=O)NC(Cc2ccccc2)C(=O)C(F)(F)F)cc1` (stereo not drawn) [Example 5, 2-[5-benzyloxycarbonylamino-6-oxo-2-(p-tolyl)-1,6-dihydro-1-pyrimidyl]-N-(1-benzyl-3,3,3-trifluoro-2-oxopropyl)-acetamide], the Ki stood at 8.7 µM.
